Article PMC6212778, “Site-specific amino acid substitution in dodecameric peptides determines the stability and unfolding of c-MYC quadruplex promoting apoptosis in cancer cells” (Nucleic Acids Research, 2018)

Columns and labels:
KRAS (Pu32) quadruplex = assay: ITC of peptides with KRAS quadruplex; type: binding, human; details: potassium phosphate buffer pH 7.0
Procedure: (§1) Thermodynamic attributes of the interaction profiles between peptides and putative quadruplex sequences are analysed by ITC using iTC200 Microcalorimeter at 25°C. Synthetic peptides (FK13, KR12A, KR12B, KR12C, KR12D and KR12E) are diluted to 20 μM in 10 mM Potassium phosphate buffer (10 mM K2HPO4 + 10 mM KH2PO4) containing 0.1 M KCl (pH 7.0). Syringe is filled with 500 μM quadruplex sequences present in the upstream promoter regions of c-MYC (Pu27, Pu19, and Myc22), BCL-2 (Pu30), VEGF-A (Pu22), KRAS (Pu32) oncogenes, and telomere (Tel26) dissolved into the same buffer. We also carried out the experiment for KR12C and Pu27 using MCF-7 nuclear extract as the solvent to mimic the cellular microenvironment and impart macromolecular crowding during binding events. Same concentration of oligonucleotides is injected into the identical buffer or in nuclear extract without peptides to normalize the heat of dilution of peptide-quadruplex association to that of the control before curve-fitting. […] The heat of reaction per injection (μcal/s) is determined by integration of the peak areas using in-built Origin 7.0 software that provides the best-fit values of enthalpy (ΔH) and entropy (ΔS) of binding, the binding stoichiometry (n), and dissociation constant (Kd) (Supplementary Tables S5(a), S5(b) and S5(c)). […]

MCF-7 cells = assay: Western blot / real time PCR of apoptotic markers and signalling proteins; type: cell-based, human; details: MCF-7, 5 and 10 μM KR12C, 24 h
Procedure: To observe the effect of KR12C in c-MYC protein expression, and to decipher the peptide-driven signaling pathway to trigger apoptosis within cancer cells, we have performed an array of Western Blot experiments. MCF-7 cells are seeded at a density of 7 × 10^5 cells per well into 60 mm dishes and allowed to attach overnight. Next day cells are serum starved for 18 h. At the end of 18 h fresh medium supplemented with 2% FBS +1% antibiotic and anti-mycotic is added. Then cells are treated with 5 μM and 10 μM KR12C. Recombinant VEGF is added at a concentration of 200 ng/ml of medium either alone or in combination with 10 μM KR12C. Cells are harvested after 24 hrs of treatment.
Whole cell lysate is prepared using the Cell Lysis Buffer (Cell Signalling Technologies) according to the manufacturer's protocol supplemented with Phenylmethylsulfonyl fluoride (PMSF) (Merck) and Protease Inhibitory Cocktail (PIC) (Merck). 40 μg of protein is separated using sodium dodecyl sulfate polyacrylamide gel electrophoresis (SDS-PAGE). (4% stacking gel and 12–15% resolving gel). Samples are transferred to polyvinylidene fluoride (PVDF) membranes (Immobilon-P, EMD Millipore). Membranes were blocked using 5% milk in Tris-buffered saline (TBS) with Tween 20 (Amresco) for 45 min at room temperature. Membranes are then incubated overnight at 4°C with the following antibodies: anti-c-Myc (Rabbit polyclonal, 1:500 dil. Cell Signalling Technology Inc.), Mouse anti-Bcl2 (Mouse monoclonal, 1:250 dil. Santacruz Biotechnology Inc.), anti E2F1, anti VEGF-A, anti-P53, anti-APAF1, anti-Caspase 8, anti-PARP (Abcam), anti-β-actin (Mouse monoclonal, 1:10 000 dil. Santacruz Biotechnology Inc.). Next membranes are incubated with peroxidase conjugated anti-rabbit IgG raised in Goat (Sigma, 1:8000 dil.) and peroxidase conjugated anti-mouse IgG raised in Rabbit (Sigma, 1:10 000 dil.) for 2 h at room temperature. Target proteins are visualised on membranes using Clarity TM Western ECL substrate (Bio-rad) and images are captured using ChemiDoc MP system with Image Lab™ software for PC version 6.0 (Bio-rad).

[1] = test system: c-MYC quadruplex isomer Pu19; assay: CD melting of free and peptide-bound Pu19; type: binding, human; details: 10 μM quadruplex, two-state model
Procedure: To understand the role of peptides (FK13, KR12A, KR12B, KR12C, KR12D and KR12E) in stabilizing native and truncated isomers of c-MYC G-quadruplex, we have performed temperature-driven CD melting experiments for free and peptide-bound complexes in JASCO-J815 CD spectrometer. We have gradually titrated the peptides into 10 μM of putative quadruplexes and acquired the spectra after 5 min of peptide addition to allow complex formation and equilibration. Samples are heated from 20 to 95°C having the temperature gradient and the delay time of 2.5°C/min and 150 s respectively. Since the quadruplexes unfold at higher temperatures and revert back to their initial conformations upon renaturation, we have assumed a ‘two-state transition’ model (folded and unfolded) to analyze the melting curves and estimated the melting temperatures (Tm) by fitting the data points into sigmoidal curves (Supplementary information Section 1).

c-MYC quadruplex (Pu27) = assay: ITC of KR12C with Pu27 under macromolecular crowding (MCF-7 nuclear extract); type: binding, human
Procedure: as §1

BCL-2 (Pu30) quadruplex = assay: ITC of peptides with BCL-2 quadruplex; type: binding, human; details: potassium phosphate buffer pH 7.0
Procedure: as §1

VEGF-A (Pu22) quadruplex = assay: ITC of peptides with VEGF-A quadruplex; type: binding, human; details: potassium phosphate buffer pH 7.0
Procedure: as §1

[2] = test system: telomere (Tel26) quadruplex; assay: ITC of peptides with telomeric quadruplex; type: binding, human; details: potassium phosphate buffer pH 7.0
Procedure: as §1

N – KRIVKLIKKWLR – C [KR12C] was tested, and the “binding affinity with KRAS quadruplex” value (KRAS (Pu32) quadruplex) was “very poor or no binding affinity”, the “expression of p53, cleaved PARP, caspase 8 and APAF-1” value (MCF-7 cells; western blot) was “significant upregulation” and the “BCL-2 expression at transcription and translation level” value (MCF-7 cells; western blot and real time PCR) was “suppressed”. For the same substance, the “VEGF-A and E2F-1 expression” value (MCF-7 cells; western blot and real time PCR) was “significantly suppressed”, the “rise in the Tm of Pu19 upon peptide binding” value [1] was 10.87 °C and the Kd (c-MYC quadruplex (Pu27); 25°C, MCF-7 nuclear extract as solvent, single-site model, background subtracted) was 901 nM. For the same substance, the “fold increase in binding affinity for Pu27 in MCF-7 nuclear extract versus potassium phosphate buffer” value (c-MYC quadruplex (Pu27); macromolecular crowding) was roughly 8 fold, the “binding affinity with BCL-2 quadruplex” value (BCL-2 (Pu30) quadruplex) was “very poor or no binding affinity” and the “fold decreased affinity for BCL-2 quadruplex compared to c-MYC quadruplexes” value (BCL-2 (Pu30) quadruplex) was roughly 3 fold. For the same substance, the “binding affinity with VEGF-A quadruplex” value (VEGF-A (Pu22) quadruplex) was “very poor or no binding affinity” and the “fold decreased affinity for telomeric quadruplex compared to c-MYC quadruplexes” value [2] was roughly 4 fold.
